US20250098679A1, “HERBICIDAL PYRIDONE DERIVATIVES” (SYNGENTA CROP PROTECTION AG, priority 2021, published 2025)

Columns and labels:
Format in all cases: in vivo
Conditions in all cases: evaluated after 13 days
[1] = test system: Ipomoea hederacea (IPOHE); assay: Post-emergence Test, Ipomoea hederacea (IPOHE); parameters: key to percentage damage caused to the plant, IPOHE (five-point scale): 5=81-100%, 4=61-80%, 3=41-60%, 2=21-40%, 1=0-20% damage
Description: (§1) Seeds of a variety of test species are sown in standard soil in pots (Setaria faberi (SETFA), Echinochloa crus-galli (ECHCG), Zea mays (ZEAMX), Ipomoea hederacea (IPOHE), Amaranthus palmeri (AMAPA), Amaranthus retoflexus (AMARE)). After 8 days cultivation under controlled conditions in a glasshouse (at 24° C./16° C., day/night; 14 hours light; 65% humidity), the plants are sprayed with an aqueous spray solution derived from the formulation of the technical active ingredient in acetone/water (50:50) solution containing 0.5% Tween 20 (polyoxyethelyene sorbitan monolaurate, CAS RN 9005-64-5). Compounds are applied at 1000 g/ha unless otherwise stated. The test plants are then grown in a glasshouse under controlled conditions in a glasshouse (at 24° C./16° C., day/night; 14 hours light; 65% humidity) and watered twice daily. After 13 days the test is evaluated for the percentage damage caused to the plant. The biological activities are shown in the following table on a five-point scale (5=81-100%; 4=61-80%; 3=41-60%; 2=21-40%; 1=0-20%; -=not tested).

Setaria faberi (SETFA) = assay: Post-emergence Test, Setaria faberi (SETFA); parameters: key to percentage damage caused to the plant, SETFA (five-point scale): 5=81-100%, 4=61-80%, 3=41-60%, 2=21-40%, 1=0-20% damage
Description: as §1

[2] = test system: Amaranthus palmeri (AMAPA); assay: Post-emergence Test, Amaranthus palmeri (AMAPA); parameters: key: 5=81-100%, 4=61-80%, 3=41-60%, 2=21-40%, 1=0-20% damage
Description: as §1

Zea mays (ZEAMX) = assay: Post-emergence Test, Zea mays (ZEAMX); parameters: key to percentage damage caused to the plant, ZEAMX (five-point scale): 5=81-100%, 4=61-80%, 3=41-60%, 2=21-40%, 1=0-20% damage
Description: as §1

[3] = test system: Echinochloa crus-galli (ECHCG); assay: Post-emergence Test, Echinochloa crus-galli (ECHCG); parameters: key to percentage damage caused to the plant, ECHCG (five-point scale): 5=81-100%, 4=61-80%, 3=41-60%, 2=21-40%, 1=0-20% damage
Description: as §1

[4] = test system: Amaranthus retoflexus (AMARE); assay: Post-emergence Test, Amaranthus retoflexus (AMARE); parameters: key to percentage damage caused to the plant, AMARE (five-point scale): 5=81-100%, 4=61-80%, 3=41-60%, 2=21-40%, 1=0-20% damage
Description: as §1

## CCn1c(Cn2cnc(C(=O)OC)c2)cc(=O)c(C(=O)O)c1-c1ccc(Cl)c(Cl)c1 [Compound 76, 2-(3,4-dichlorophenyl)-1-ethyl-6-[(4-methoxycarbonyl-imidazol-1-yl)methyl]-4-oxo-pyridine-3-carboxylic acid]
[1]; 1000 g/ha
  percentage damage caused to the plant, IPOHE (five-point scale): 0
Setaria faberi (SETFA); 1000 g/ha
  percentage damage caused to the plant, SETFA (five-point scale): 1 (1=0-20%)
[2]; 1000 g/ha
  percentage damage caused to the plant, AMAPA (five-point scale): 1 (1=0-20%)
Zea mays (ZEAMX); 1000 g/ha
  percentage damage caused to the plant, ZEAMX (five-point scale): 1 (1=0-20%)
[3]; 1000 g/ha
  percentage damage caused to the plant, ECHCG (five-point scale): 0
[4]; 1000 g/ha
  percentage damage caused to the plant, AMARE (five-point scale): 1 (1=0-20%)

## CCn1c(Cn2ccc(-c3ccncc3)n2)cc(=O)c(C(=O)O)c1-c1ccc(Cl)c(Cl)c1 [Compound 195, 2-(3,4-dichlorophenyl)-1-ethyl-4-oxo-6-[[3-(4-pyridyl)pyrazol-1-yl]methyl]pyridine-3-carboxylic acid]
[1]; 250 g/Ha (*)
  Post-emergence Test IPOHE, percentage damage caused to the plant (five-point scale): 0
[1]; 1000 g/ha
  Post-emergence Test IPOHE, percentage damage caused to the plant (five-point scale): 1 (1=0-20%)
Setaria faberi (SETFA); 1000 g/ha
  Post-emergence Test SETFA, percentage damage caused to the plant (five-point scale): 2 (2=21-40%)
[2]; 250 g/Ha (*)
  Post-emergence Test AMAPA, percentage damage caused to the plant (five-point scale): 0
[2]; 1000 g/ha
  Post-emergence Test AMAPA, percentage damage caused to the plant (five-point scale): 0
Zea mays (ZEAMX); 250 g/Ha (*)
  Post-emergence Test ZEAMX, percentage damage caused to the plant (five-point scale): 0
Zea mays (ZEAMX); 1000 g/ha
  Post-emergence Test ZEAMX, percentage damage caused to the plant (five-point scale): 1 (1=0-20%)
[3]; 250 g/Ha (*)
  Post-emergence Test ECHCG, percentage damage caused to the plant (five-point scale): 1 (1=0-20%)
[4]; 250 g/Ha (*)
  Post-emergence Test AMARE, percentage damage caused to the plant (five-point scale): 0
[4]; 1000 g/ha
  Post-emergence Test AMARE, percentage damage caused to the plant (five-point scale): 1 (1=0-20%)

## CCn1c(Cn2cc(S(C)(=O)=O)cn2)cc(=O)c(C(=O)O)c1-c1ccc(Cl)c(Cl)c1 [Compound 90, 2-(3,4-dichlorophenyl)-1-ethyl-6-[(4-methylsulfonylpyrazol-1-yl)methyl]-4-oxo-pyridine-3-carboxylic acid]
[1]; 1000 g/ha
  percentage damage caused to the plant, IPOHE (five-point scale): 0
Setaria faberi (SETFA); 1000 g/ha
  percentage damage caused to the plant, SETFA (five-point scale): 0
[2]; 1000 g/ha
  percentage damage caused to the plant, AMAPA (five-point scale): 1 (1=0-20%)
Zea mays (ZEAMX); 1000 g/ha
  percentage damage caused to the plant, ZEAMX (five-point scale): 0
[3]; 1000 g/ha
  percentage damage caused to the plant, ECHCG (five-point scale): 1 (1=0-20%)
[4]; 1000 g/ha
  percentage damage caused to the plant, AMARE (five-point scale): 1 (1=0-20%)

## CCOC(=O)c1c(-c2ccc(Cl)c(Cl)c2)n(CC)c(Cn2cnc([N+](=O)[O-])c2)cc1=O [Compound 51, ethyl 2-(3,4-dichlorophenyl)-1-ethyl-6-[(4-nitroimidazol-1-yl)methyl]-4-oxo-pyridine-3-carboxylate]
[1]; 1000 g/ha
  percentage damage caused to the plant, IPOHE (five-point scale): 1 (1=0-20%)
Setaria faberi (SETFA); 1000 g/ha
  percentage damage caused to the plant, SETFA (five-point scale): 1 (1=0-20%)
[2]; 1000 g/ha
  percentage damage caused to the plant, AMAPA (five-point scale): 1 (1=0-20%)
Zea mays (ZEAMX); 1000 g/ha
  percentage damage caused to the plant, ZEAMX (five-point scale): 0
[3]; 1000 g/ha
  percentage damage caused to the plant, ECHCG (five-point scale): 1 (1=0-20%)
[4]; 1000 g/ha
  percentage damage caused to the plant, AMARE (five-point scale): 0

## CCn1c(Cn2cc3ccccc3n2)cc(=O)c(C(=O)O)c1-c1ccc(Cl)c(Cl)c1 [Compound 106, 2-(3,4-dichlorophenyl)-1-ethyl-6-(indazol-2-ylmethyl)-4-oxo-pyridine-3-carboxylic acid]
[1]; 250 g/Ha
  percentage damage caused to the plant, IPOHE (five-point scale): 0
[1]; 1000 g/ha
  percentage damage caused to the plant, IPOHE (five-point scale): 3 (3=41-60%)
Setaria faberi (SETFA); 250 g/Ha
  percentage damage caused to the plant, SETFA (five-point scale): 0
Setaria faberi (SETFA); 1000 g/ha
  percentage damage caused to the plant, SETFA (five-point scale): 1 (1=0-20%)
[2]; 250 g/Ha
  percentage damage caused to the plant, AMAPA (five-point scale): 0
[2]; 1000 g/ha
  percentage damage caused to the plant, AMAPA (five-point scale): 1 (1=0-20%)
Zea mays (ZEAMX); 250 g/Ha
  percentage damage caused to the plant, ZEAMX (five-point scale): 0
Zea mays (ZEAMX); 1000 g/ha
  percentage damage caused to the plant, ZEAMX (five-point scale): 0
[3]; 250 g/Ha
  percentage damage caused to the plant, ECHCG (five-point scale): 2 (2=21-40%)
[3]; 1000 g/ha
  percentage damage caused to the plant, ECHCG (five-point scale): 1 (1=0-20%)
[4]; 250 g/Ha
  percentage damage caused to the plant, AMARE (five-point scale): 0
[4]; 1000 g/ha
  percentage damage caused to the plant, AMARE (five-point scale): 1 (1=0-20%)

## CCn1c(Cn2ccc(NC(C)=O)n2)cc(=O)c(C(=O)O)c1-c1ccc(Cl)c(Cl)c1 [Compound 154, 6-[(3-acetamidopyrazol-1-yl)methyl]-2-(3,4-dichlorophenyl)-1-ethyl-4-oxo-pyridine-3-carboxylic acid]
[1]; 250 g/Ha
  percentage damage caused to the plant, IPOHE (five-point scale): 0
[1]; 1000 g/ha
  percentage damage caused to the plant, IPOHE (five-point scale): 0
Setaria faberi (SETFA); 250 g/Ha
  percentage damage caused to the plant, SETFA (five-point scale): 0
Setaria faberi (SETFA); 1000 g/ha
  percentage damage caused to the plant, SETFA (five-point scale): 0
[2]; 250 g/Ha
  percentage damage caused to the plant, AMAPA (five-point scale): 0
[2]; 1000 g/ha
  percentage damage caused to the plant, AMAPA (five-point scale): 0
Zea mays (ZEAMX); 250 g/Ha
  percentage damage caused to the plant, ZEAMX (five-point scale): 1 (1=0-20%)
Zea mays (ZEAMX); 1000 g/ha
  percentage damage caused to the plant, ZEAMX (five-point scale): 1 (1=0-20%)
[3]; 250 g/Ha
  percentage damage caused to the plant, ECHCG (five-point scale): 0
[3]; 1000 g/ha
  percentage damage caused to the plant, ECHCG (five-point scale): 0
[4]; 250 g/Ha
  percentage damage caused to the plant, AMARE (five-point scale): 0
[4]; 1000 g/ha
  percentage damage caused to the plant, AMARE (five-point scale): 0

## CCn1c(Cn2ccc(Cl)n2)cc(=O)c(C(=O)O)c1-c1ccc(Cl)c(C#N)c1 [Compound 131, 2-(4-chloro-3-cyano-phenyl)-6-[(3-chloropyrazol-1-yl)methyl]-1-ethyl-4-oxo-pyridine-3-carboxamide acid]
[1]; 1000 g/ha
  percentage damage caused to the plant, IPOHE (five-point scale): 1 (1=0-20%)
Setaria faberi (SETFA); 1000 g/ha
  percentage damage caused to the plant, SETFA (five-point scale): 2 (2=21-40%)
[2]; 1000 g/ha
  percentage damage caused to the plant, AMAPA (five-point scale): 0
Zea mays (ZEAMX); 1000 g/ha
  percentage damage caused to the plant, ZEAMX (five-point scale): 0
[4]; 1000 g/ha
  percentage damage caused to the plant, AMARE (five-point scale): 0

## CCn1c(Cn2ccc(-c3cccc(Cl)c3)n2)cc(=O)c(C(=O)O)c1-c1ccc(Cl)c(Cl)c1 [Compound 202, 6-[[3-(3-chlorophenyl)pyrazol-1-yl]methyl]-2-(3,4-dichlorophenyl)-1-ethyl-4-oxo-pyridine-3-carboxylic acid]
[1]; 1000 g/ha
  Post-emergence Test IPOHE, percentage damage caused to the plant (five-point scale): 1 (1=0-20%)
Setaria faberi (SETFA); 1000 g/ha
  Post-emergence Test SETFA, percentage damage caused to the plant (five-point scale): 1 (1=0-20%)
[2]; 1000 g/ha
  Post-emergence Test AMAPA, percentage damage caused to the plant (five-point scale): 0
Zea mays (ZEAMX); 1000 g/ha
  Post-emergence Test ZEAMX, percentage damage caused to the plant (five-point scale): 1 (1=0-20%)
[4]; 1000 g/ha
  Post-emergence Test AMARE, percentage damage caused to the plant (five-point scale): 0

## CCn1c(Cn2nc(C#N)cc2C#N)cc(=O)c(C(=O)O)c1-c1ccc(Cl)c(Cl)c1 [Compound 132, 2-(3,4-dichlorophenyl)-6-[(3,5-dicyanopyrazol-1-yl)methyl]-1-ethyl-4-oxo-pyridine-3-carboxylic acid]
[1]; 1000 g/ha
  percentage damage caused to the plant, IPOHE (five-point scale): 0
Setaria faberi (SETFA); 1000 g/ha
  percentage damage caused to the plant, SETFA (five-point scale): 1 (1=0-20%)
Zea mays (ZEAMX); 1000 g/ha
  percentage damage caused to the plant, ZEAMX (five-point scale): 1 (1=0-20%)
[3]; 1000 g/ha
  percentage damage caused to the plant, ECHCG (five-point scale): 1 (1=0-20%)
[4]; 1000 g/ha
  percentage damage caused to the plant, AMARE (five-point scale): 0
